Assay in all cases: inhibition of tumour cell growth, NCI panel, 48 h
Experiment [1] deals with HL-60(TB) leukemia.
Experiment [2] relates to MDA-N.
In experiment [3] the test system is A549 NSCLC.
The test system of experiment [4] is LOX IMVI melanoma.
For experiment [5], the system named is U251 CNS.
The test system of experiment [6] is UACC-62 melanoma.
Experiment [7] relates to SK-OV-3 ovarian.
For experiment [8], the system named is OVCAR-3 ovarian.
Experiment [9] relates to SR leukemia.
For experiment [10], the system named is SK-MEL-28 melanoma.
Experiment [11] concerns 786-0 renal.
Experiment [12] deals with SN12C renal.

The structures appear in SMILES notation.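 Method: 48-hour compound exposure of cells in 96-well plates, five concentrations, linear interpolation of endpoints. Definition used: TGI = concentration required for complete inhibition of growth.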 Bounds are passed on as bounds.

As to `S=c1sc2nc(Cl)nc(Cl)c2s1`, the TGI worked out at 8.78 µM in [1]; 24.8 µM in experiment [2]; 42.4 µM in experiment [3]; 30.3 µM in experiment [4]; 21.3 µM in experiment [5]; 27.1 µM in experiment [6]. Moreover, the TGI came out at 31.6 µM in experiment [7]; 25.2 µM in [8]; 21.2 µM in experiment [9]; 30.4 µM in experiment [10]; 12.9 µM in experiment [11]; 32.4 µM in experiment [12].

For `C=CCNC1=C2C[C@@H](C)C[C@@H](OC)[C@H](OC(=O)CN)[C@H](C)/C=C(\C)[C@@H](OC(N)=O)[C@H](OC)/C=C\C=C(/C)C(=O)NC(=CC1=O)C2=O`, the TGI in experiment [1] came to 8.53 µM; in experiment [2], 13 µM; in experiment [3] it was 21 µM; in [4], 6.45 µM; in experiment [5] it was 29.1 µM; in experiment [6], 12 µM. The TGI is 12.5 µM in [7]; 7.41 µM in [8]; > 40 µM in [9]; 29.7 µM in experiment [10]; 20.7 µM in experiment [11]; 17.1 µM in [12].

Turning to `COc1ccc2c(c1)CCC1=CC3(CCC12C)SCCS3` (stereo not drawn), the TGI is 8.36 µM in experiment [1]; 6.36 µM in experiment [2]; > 10 µM in [3]; > 10 µM in experiment [4]; > 10 µM in [5]; > 10 µM in experiment [6]. Further, the TGI in [7] is > 10 µM; in [8], 7.71 µM; in experiment [9], > 10 µM; in experiment [10], > 10 µM; in [11], > 10 µM; in [12] it was > 10 µM.

As for `Cc1ccc(/C=C/C(=N/NC(=O)N/N=C(/C=C/c2ccc(C)cc2)C(C)(C)CN2CCCCC2)C(C)(C)CN2CCCCC2)cc1`, the TGI in experiment [1] is 3.35 µM; in [2] it was 2.88 µM; in experiment [3] it was 3.02 µM; in experiment [4], 2.64 µM; in [5] it was 2.82 µM; in experiment [6], 4.02 µM. Further, the TGI in [7] turned out to be 3.32 µM; in experiment [8], 3.07 µM; in experiment [9], 0.359 µM; in experiment [10] it was 3.18 µM; in experiment [11] it was 2.68 µM; in experiment [12], 3.27 µM.

For the compound `C[C@]12[C@@H]3CC[C@H]1[C@@H](OC(=O)Nc1cc([N+](=O)[O-])cc([N+](=O)[O-])c1)C(=O)N2CC3`, the TGI in experiment [1], in experiment [2], in [3], in experiment [4], in experiment [5] and in experiment [6] was > 100 µM each time. Moreover, the TGI in [7], in experiment [9], in experiment [10], in [11] and in [12] was > 100 µM in each case.

For `O=C1/C(=C/c2ccc(Cl)cc2)N=C(c2ccccc2)N1c1ccc(S(=O)(=O)Nc2nccs2)cc1`, the TGI in [1] was 75.6 µM; in [2], > 100 µM; in experiment [3] it was > 100 µM; in experiment [4], > 100 µM; in experiment [5], > 100 µM; in experiment [6], 53.1 µM. Moreover, the TGI in [7], in experiment [8], in experiment [9], in experiment [10], in [11] and in [12] was > 100 µM each time.

As for `O=C(Nc1ccccc1F)c1cc2ccc(O)cc2oc1=Nc1cccc(C(F)(F)F)c1`, the TGI in experiment [1] was 4.84 µM; in experiment [2], > 100 µM; in experiment [3], > 100 µM; in experiment [4], 6.52 µM; in [5], 19.3 µM; in [6] it was 21 µM. In addition, the TGI is 35.2 µM in [7]; > 100 µM in [8]; 17.7 µM in [9]; 40.7 µM in [10]; 17.8 µM in [11].

`CCOC(=O)/C=C(/C(=O)OCC)n1ccc(=O)n(/C(=C/C(=O)OCC)C(=O)OCC)c1=O`: the TGI in experiment [1] was determined as 2.91 µM; in experiment [2] it was 26.7 µM; in experiment [3], 32.7 µM; in experiment [4], 10.5 µM; in [5], 29.4 µM; in [6] it was 28.3 µM. The TGI in experiment [7] worked out at 43.7 µM; in experiment [8], 16.9 µM; in [9], 13.5 µM; in [10], 27.9 µM; in experiment [11], 5.86 µM; in experiment [12] it was 17.9 µM.

`C=CC(C)CCC(C/C=C(\C)CCC=C(C)C)C(=C)CCCC(C)C` (stereo not drawn): the TGI in experiment [1], in experiment [2], in experiment [3], in experiment [4], in experiment [5] and in experiment [6] was > 100 µM throughout. Moreover, the TGI in experiment [7], in [8], in experiment [9], in experiment [10], in experiment [11] and in experiment [12] was > 100 µM in each case.

Take `CCCCCCCN1C(=O)C(O)(c2ccc(C3(O)C(=O)N(CCCCCCC)c4ccccc43)s2)c2ccccc21` (stereo not drawn): the TGI in experiment [1] came to 3.42 µM; in experiment [2] it was 4.06 µM; in experiment [4], 3.51 µM; in [5], 3.17 µM; in experiment [6] it was 4.06 µM; in [7] it was 2.2 µM. In addition, the TGI is 18.4 µM in experiment [9], 3.98 µM in experiment [10], 3.61 µM in experiment [11] and 3.42 µM in [12].

Consider `C=CCOC(=O)[C@@H]1C[C@@H](OC(C)(C)C)CN1C(=O)[C@@H]1[C@H]2OC(C)(C)O[C@H]2CN1C(=O)OCC1c2ccccc2-c2ccccc21`, for which the TGI in experiment [1] came out at 29.1 µM; in experiment [2], 33.4 µM; in experiment [3], 31.9 µM; in experiment [4] it was 4.87 µM; in experiment [5] it was 28.8 µM; in experiment [6], 34.5 µM. Moreover, the TGI worked out at 31.6 µM in experiment [7]; 35.2 µM in [8]; 31.7 µM in experiment [9]; 34.6 µM in experiment [10]; 9.97 µM in experiment [11]; 32.2 µM in [12].

(Values after PubChem BioAssay (NCI).)
